Publication PMC8496261 (RSC Chemical Biology, 2021)
Numbered stars: 1 amine (or outer) side, 2 acyl side, 3 side chain; on linkers, the order of the positions; unused ones are H or OH. Bridge positions count the residues as written; N and C are the ends. Peptide text beside a SMILES is read from it. * marks the point of attachment. FITC = O=C1OC2(c3ccc(O)cc3Oc3cc(O)ccc32)c2ccc(NC(=S)*)cc21; X1 = Cc1c(C[*:1])n2c(C[*:2])c(C)c(=O)n2c1=O; βAla = NCCC(=O)O

Columns and labels:
[1] = target: PCNA (hPCNA) (Homo sapiens, UniProt P12004); test: SPR steady state binding affinity for PCNA; conditions: for PCNA binding affinity, in words: SPR, 2 compared with peptide 1, 9 compared with peptide 7
[2] = system: MDA-MB-468 breast cancer cells (mKate nuclear label); test: Cell uptake assay imaged by confocal fluorescence microscopy; assay type: cell-based, human; conditions: MDA-MB-468 cells, 10 μM peptide, 24 h, fixed

PCNA (hPCNA), sequence (P12004 whole entry): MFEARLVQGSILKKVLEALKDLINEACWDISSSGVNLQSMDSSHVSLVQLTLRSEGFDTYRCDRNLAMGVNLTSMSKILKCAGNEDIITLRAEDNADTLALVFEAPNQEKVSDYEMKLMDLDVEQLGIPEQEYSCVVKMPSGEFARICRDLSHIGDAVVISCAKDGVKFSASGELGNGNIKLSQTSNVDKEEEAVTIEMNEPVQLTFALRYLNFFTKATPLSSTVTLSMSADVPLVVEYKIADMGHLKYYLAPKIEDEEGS

| Compound | Kd ([1]; SEM) [nM] | PCNA binding affinity, in words [1] | intracellular distribution of peptide fluorescence [2] |
| --- | --- | --- | --- |
| CSCC[C@H](NC(=O)[C@H](CO)NC(=O)[C@@H](NC(=O)[C@H](CCC(N)=O)NC(=O)[C@@H](N)CCCNC(=N)N)[C@@H](C)O)C(=O)N[C@H](C(=O)N[C@@H](CC(=O)O)C(=O)N[C@@H](Cc1ccccc1)C(=O)N[C@@H](Cc1ccc(O)cc1)C(=O)N[C@@H](Cc1c[nH]cn1)C(=O)N[C@@H](CO)C(=O)N[C@@H](CCCCN)C(N)=O)[C@@H](C)O [Peptide 1] (H-RQTSMTDFYHSK-NH2) | 102 ± 5 | – | – |
| CSCC[C@@H]1NC(=O)[C@H](CO)NC(=O)[C@@H](NC(=O)[C@H](CCC(N)=O)NC(=O)[C@H](CCCNC(=N)N)NC(=O)CCNC(=S)Nc2ccc3c(c2)C(=O)OC32c3ccc(O)cc3Oc3cc(O)ccc32)CSCc2c(C)c(=O)n3c(=O)c(C)c(n23)CSC[C@@H](C(=O)N[C@@H](Cc2ccccc2)C(=O)N[C@@H](Cc2ccc(O)cc2)C(=O)N[C@@H](Cc2c[nH]cn2)C(=O)N[C@@H](CO)C(=O)N[C@@H](CCCCN)C(N)=O)NC(=O)[C@H]([C@@H](C)O)NC1=O [Peptide 9] ({FITC-βAla}-RQCSMTCFYHSK-NH2; linker 3-7 via X1) | – | dramatically decreases the binding affinity | both blue and green fluorescence present throughout the cell cytoplasm |
| Ac-RQCSMTCFYHSK-NH2 [Peptide 2] | – | significantly reduced PCNA affinity | – |
